Measurements from ChEMBL document CHEMBL4813917, “2-((1-Phenyl-1H-1,2,3-triazol-4-yl)methyl)-2-azabicyclo[3.2.1]octan-3-one derivatives: Simplification and modification of aconitine scaffold for the discovery of novel anticancer agents” (Eur J Med Chem, 2021).
Calls of active or inactive are those of the source. No cut-off for these calls is given here.

Tests used:
[1] = Cytotoxicity against human IOSE80 cells assessed as reduction in cell viability measured after 24 hrs by MTT assay; assay type: cell-based
LoVo = experiment: Antiproliferative activity against human LoVo cells assessed as inhibition of cell proliferation measured after 24 hrs by MTT assay; assay type: functional, cell-based
[2] = Cytotoxicity against human MRC5 cells assessed as reduction in cell viability measured after 24 hrs by MTT assay; assay type: cell-based
[3] = Cytotoxicity against human HPDE6c7 cells assessed as reduction in cell viability measured after 24 hrs by MTT assay; assay type: functional
SGC-7901 = experiment: Antiproliferative activity against human SGC-7901 cells assessed as inhibition of cell proliferation measured after 24 hrs by MTT assay; assay type: functional, cell-based; details: SGC-7901, 24 h
[4] = Cytotoxicity against human L02 cells assessed as reduction in cell viability measured after 24 hrs by MTT assay; assay type: cell-based
[5] = Cytotoxicity against human GES1 cells assessed as reduction in cell viability measured after 24 hrs by MTT assay; assay type: cell-based
[6] = Cytotoxicity against human NCM460 cells assessed as reduction in cell viability measured after 24 hrs by MTT assay; assay type: cell-based
OVCAR-3 = experiment: Antiproliferative activity against human OVCAR-3 cells assessed as inhibition of cell proliferation measured after 24 hrs by MTT assay; assay type: functional, cell-based; details: OVCAR-3, 24 h
PANC-1 = experiment: Antiproliferative activity against human PANC-1 cells assessed as inhibition of cell proliferation measured after 24 hrs by MTT assay; assay type: functional, cell-based; details: PANC-1, 24 h
HepG2 = experiment: Antiproliferative activity against human HepG2 cells assessed as inhibition of cell proliferation measured after 24 hrs by MTT assay; assay type: functional, cell-based; details: HepG2, 24 h
[7] = molecular target: Heat shock protein HSP 90-alpha (Homo sapiens, UniProt P07900); experiment: Inhibition of recombinant human N terminal his-tagged HSP90 alpha (1 to 732 residues) expressed in Escherichia coli measured after 60 mins by Flourescence polarization assay
A549 = experiment: Antiproliferative activity against human A549 cells assessed as inhibition of cell proliferation measured after 24 hrs by MTT assay; assay type: functional, cell-based; details: A549, 24 h
SW-620 [8] = experiment: Antitumour activity against human SW-620 cells xenografted in Balb/c mouse assessed as decrease in Ki67 expression in tumour at 5 mg/kg, ip measured after 21 days immunochemical staining method; assay type: functional, organism-based; details: time 21.0 day
SW-620 [9] = experiment: Antitumour activity against human SW-620 cells xenografted in Balb/c mouse assessed as inhibition of tumour growth at 5 mg/kg, ip measured after 21 days; assay type: functional; details: SW-620, ip, 504 h, time 21 day, read-out: TGI

Structure (SMILES)	CC50 at 24 h [1] [nM]	IC50 (LoVo) [nM]	CC50 at 24 h [2] [nM]	CC50 [3] [nM]	IC50 (SGC-7901) [nM]	CC50 at 24 h [4] [nM]	CC50 at 24 h [5] [nM]	CC50 at 24 h [6] [nM]	IC50 (OVCAR-3) [nM]	IC50 (PANC-1) [nM]	IC50 (HepG2) [nM]	IC50 [7] [nM]	IC50 (A549) [nM]	Activity (SW-620 [8])	inhibition in vivo at 5 mg/kg (SW-620 [9]) [%]
CC1(C)[C@H]2CC[C@]1(C)N(Cc1cn(-c3ccccc3Cl)nn1)C(=O)C2	13400	190	4130	3940	220	20100	5370	10800	40	270	60	3.28	70	–	–
CC1(C)[C@H]2CC[C@]1(C)N(Cc1cn(-c3ccc(O)cc3)nn1)C(=O)C2	–	410	–	–	330	–	–	–	410	100	80	–	140	–	–
Cc1ccccc1-n1cc(CN2C(=O)C[C@@H]3CC[C@@]2(C)C3(C)C)nn1	–	80	–	–	350	–	–	–	150	250	150	–	90	–	–
CC1(C)[C@H]2CC[C@]1(C)N(Cc1cn(-c3cccc(C#N)c3)nn1)C(=O)C2	–	320	–	–	250	–	–	–	230	260	40	–	440	–	–
CC1(C)[C@H]2CC[C@]1(C)N(Cc1cn(-c3ccccc3)nn1)C(=O)C2	23400	50	9730	> 100000	240	6230	6690	19600	50	160	90	34	70	–	–
CC1(C)[C@H]2CC[C@]1(C)N(Cc1cn(-c3ccc(Cl)cc3)nn1)C(=O)C2	–	160	–	–	410	–	–	–	160	440	90	–	70	–	–
CC1(C)[C@H]2CC[C@]1(C)N(Cc1cn(-c3cccc(F)c3)nn1)C(=O)C2	–	90	–	–	530	–	–	–	430	220	80	–	180	–	–
CC1(C)[C@H]2CC[C@]1(C)N(Cc1cn(-c3ccc(Br)cc3)nn1)C(=O)C2	–	60	–	–	450	–	–	–	140	200	110	–	80	–	–
CC1(C)[C@H]2CC[C@]1(C)N(Cc1cn(-c3ccccc3O)nn1)C(=O)C2	–	540	–	–	410	–	–	–	90	230	120	–	230	–	–
COc1cccc(-n2cc(CN3C(=O)C[C@@H]4CC[C@@]3(C)C4(C)C)nn2)c1	–	80	–	–	590	–	–	–	280	860	70	–	240	–	–
COc1ccccc1-n1cc(CN2C(=O)C[C@@H]3CC[C@@]2(C)C3(C)C)nn1	–	70	–	–	280	–	–	–	140	120	110	–	350	–	–
Cc1cccc(-n2cc(CN3C(=O)C[C@@H]4CC[C@@]3(C)C4(C)C)nn2)c1	–	50	–	–	410	–	–	–	160	240	300	–	50	–	–
COc1ccc(-n2cc(CN3C(=O)C[C@@H]4CC[C@@]3(C)C4(C)C)nn2)cc1	–	70	–	–	480	–	–	–	250	330	100	–	50	–	–
CC1(C)[C@H]2CC[C@]1(C)N(Cc1cn(-c3cccc(Cl)c3)nn1)C(=O)C2	13500	70	8840	13000	510	8510	69800	8410	50	260	60	7.38	60	–	–
C=CCNC1=C2C[C@@H](C)C[C@H](OC)[C@H](O)[C@@H](C)/C=C(\C)[C@H](OC(N)=O)[C@@H](OC)/C=C\C=C(/C)C(=O)NC(=CC1=O)C2=O [TANESPIMYCIN]	21500	260	14200	19500	> 10000	11600	7940	14200	480	3210	330	–	> 10000	Active	29.6
CC1(C)[C@H]2CC[C@]1(C)N(Cc1cn(-c3ccc(C#N)cc3)nn1)C(=O)C2	5520	90	10800	> 100000	500	15700	11200	8140	380	250	50	21.8	140	–	–
CC1(C)[C@H]2CC[C@]1(C)N(Cc1cn(-c3ccccc3Br)nn1)C(=O)C2	–	60	–	–	500	–	–	–	140	280	150	–	130	–	–
CC1(C)[C@H]2CC[C@]1(C)N(Cc1cn(-c3ccccc3C#N)nn1)C(=O)C2	13800	140	23300	16000	260	46100	9450	37500	110	240	180	7.99	100	–	–
CC1(C)[C@H]2CC[C@]1(C)N(Cc1cn(-c3cccc(O)c3)nn1)C(=O)C2	–	410	–	–	270	–	–	–	370	280	70	–	180	–	–
CC1(C)[C@H]2CC[C@]1(C)N(Cc1cn(-c3ccccc3F)nn1)C(=O)C2	19200	40	15100	26200	300	13300	5160	5260	300	150	60	2.68	240	–	–
Cc1ccc(-n2cc(CN3C(=O)C[C@@H]4CC[C@@]3(C)C4(C)C)nn2)cc1	–	50	–	–	390	–	–	–	40	270	480	–	400	–	–
CC1(C)[C@H]2CC[C@]1(C)N(Cc1cn(-c3ccc(F)cc3)nn1)C(=O)C2	–	40	–	–	500	–	–	–	200	110	90	–	230	–	–
